# Measured values: patent US20070190523A1 (priority 2002, published 2007)
# System: mutant HIV-1 with I84V/L90M mutations
# Type: cell-based
# Conditions: I84V/L90M mutant
row,Structure (SMILES),I84V/L90M fold change
1,COc1ccc(S(=O)(=O)N(CC(C)C)CC(O)C(Cc2ccc(OCc3ccccc3)cc2)NC(=O)OC2COC3OCCC23)cc1 (stereo not drawn),− (≦3)
2,COc1ccc(S(=O)(=O)N(CCN(C)C)CC(O)C(Cc2ccc(O)cc2)NC(=O)OC2COC3OCCC23)cc1 (stereo not drawn),− (≦3)
3,COc1ccc(S(=O)(=O)N(CCN(C)C)CC(O)C(Cc2ccc(OCc3ccccc3)cc2)NC(=O)OC2COC3OCCC23)cc1 (stereo not drawn),− (≦3)
4,CCOC(=O)C(C)OP(=O)(Cc1ccc2c(c1)CCN(C[C@H](NC(=O)O[C@H]1CO[C@H]3OCC[C@H]31)[C@H](O)CN(CC(C)C)S(=O)(=O)c1ccc(OC)cc1)C2)Oc1ccccc1 (stereo partly drawn),+ (>3 to ≦10)
5,Cc1cccc(C)c1OCC(=O)NC(Cc1ccc(OCP(=O)(O)O)cc1)C(O)CN(CC(C)C)S(=O)(=O)c1ccc(N)cc1 (stereo not drawn),− (≦3)
6,Cc1cccc(C)c1OCC(=O)NC(Cc1ccc(OCP(=O)(OCc2ccccc2)OCc2ccccc2)cc1)C(O)CN(CC(C)C)S(=O)(=O)c1ccc(N)cc1 (stereo not drawn),− (≦3)
7,Cc1ccc(C(=O)NC(Cc2ccc(OCP(=O)(OCc3ccccc3)OCc3ccccc3)cc2)C(O)CN(CC(C)C)S(=O)(=O)c2ccc(N)cc2)cc1O (stereo not drawn),+ (>3 to ≦10)
8,CC(C)CN(CC(O)C(Cc1ccc(OCP(=O)(O)O)cc1)NC(=O)OC1COC2OCCC12)S(=O)(=O)c1ccc(N)cc1 (stereo not drawn),− (≦3)
9,CCOP(=O)(COc1ccc(CC(NC(=O)OC2COC3OCCC23)C(O)CN(CC(C)C)S(=O)(=O)c2ccc(N)cc2)cc1)OCC (stereo not drawn),− (≦3)
10,CCOP(=O)(COc1ccc(CC(NC(=O)OC2COC3OCCC23)C(O)CN(CC(C)C)S(=O)(=O)c2ccc([N+](=O)[O-])cc2)cc1)OCC (stereo not drawn),− (≦3)
11,CCNc1ccc(S(=O)(=O)N(CC(C)C)CC(O)C(Cc2ccc(OCP(=O)(OCC)OCC)cc2)NC(=O)OC2COC3OCCC23)cc1 (stereo not drawn),− (≦3)
12,CC(C)CN(CC(O)C(Cc1ccc(OCP(=O)(OCc2ccccc2)OCc2ccccc2)cc1)NC(=O)OC1COC2OCCC12)S(=O)(=O)c1ccc(N)cc1 (stereo not drawn),− (≦3)
13,CC(C)CN(CC(O)C(Cc1ccc(OCP(=O)(O)O)cc1)NC(=O)OC1COC2OCCC12)S(=O)(=O)c1cccc(N)c1 (stereo not drawn),− (≦3)
14,CCOP(=O)(COc1ccc(CC(NC(=O)OC2COC3OCCC23)C(O)CN(CC(C)C)S(=O)(=O)c2cccc(N)c2)cc1)OCC (stereo not drawn),− (≦3)
15,CC(C)CN(CC(O)C(Cc1ccc(OCP(=O)(OCc2ccccc2)OCc2ccccc2)cc1)NC(=O)OC1COC2OCCC12)S(=O)(=O)c1cccc(N)c1 (stereo not drawn),− (≦3)
16,CCCCOC(=O)C(C)OP(=O)(COc1ccc(CC(NC(=O)OC2COC3OCCC23)C(O)CN(CC(C)C)S(=O)(=O)c2cccc(N)c2)cc1)Oc1ccccc1 (stereo not drawn),− (≦3)
17,CC(C)CN(CC(O)C(Cc1ccc(OCP(=O)(OCc2ccccc2)OCc2ccccc2)cc1)NC(=O)OC1COC2OCCC12)S(=O)(=O)c1ccccc1 (stereo not drawn),+ (>3 to ≦10)
18,CC(C)CN(CC(O)C(Cc1ccc(OCP(=O)(OCc2ccccc2)OCc2ccccc2)cc1)NC(=O)OC1COC2OCCC12)S(=O)(=O)c1ccc(C(F)(F)F)cc1 (stereo not drawn),− (≦3)
19,CC(C)CN(CC(O)C(Cc1ccc(OCP(=O)(OCc2ccccc2)OCc2ccccc2)cc1)NC(=O)OC1COC2OCCC12)S(=O)(=O)c1ccc(C#N)cc1 (stereo not drawn),− (≦3)
20,CC(C)CN(CC(O)C(Cc1ccccc1)NC(=O)OC1COC2OCCC12)S(=O)(=O)c1ccc(O)cc1 (stereo not drawn),− (≦3)
21,CC(C)CN(CC(O)C(Cc1ccccc1)NC(=O)OC1COC2OCCC12)S(=O)(=O)c1ccc(OCP(=O)(O)O)cc1 (stereo not drawn),− (≦3)
22,COc1ccc(S(=O)(=O)N(CC(C)C)CC(O)C(Cc2ccccc2)NC(=O)OC2COC3OCCC23)cc1O (stereo not drawn),− (≦3)
23,COc1ccc(S(=O)(=O)N(CC(C)C)CC(O)C(Cc2ccccc2)NC(=O)OC2COC3OCCC23)cc1OCP(=O)(O)O (stereo not drawn),− (≦3)
24,CCOP(=O)(COc1cc(S(=O)(=O)N(CC(C)C)CC(O)C(Cc2ccccc2)NC(=O)OC2COC3OCCC23)ccc1O)OCC (stereo not drawn),− (≦3)
25,"CC(C)CN(C[C@@H](O)[C@H](Cc1ccc(OCP(=O)(Oc2ccccc2)Oc2ccccc2)cc1)NC(=O)OC1CCOC1)S(=O)(=O)c1ccc(N)cc1 (stereo partly drawn) [NH2, phenol]",− (≦3)
26,"CC(C)CN(CC(O)C(Cc1ccc(O)cc1)NC(=O)OC1COC2OCCC12)S(=O)(=O)c1cccc(N)c1 (stereo not drawn) [OH, m-NH2]",− (≦3)
27,"CC(C)CN(CC(O)C(Cc1ccc(O)cc1)NC(=O)OC1COC2OCCC12)S(=O)(=O)c1ccc(N)cc1 (stereo not drawn) [OH, p-NH2]",− (≦3)
28,"COc1ccc(S(=O)(=O)N(CC(C)C)C[C@@H](O)[C@H](Cc2ccc(OCP(=O)(O)O)cc2)NC(=O)OC2CCOC2)cc1 (stereo partly drawn) [OMe, OH]",+++ (>30)
29,"COc1ccc(S(=O)(=O)N(CC(C)C)C[C@@H](O)[C@H](Cc2ccc(OCP(=O)(Oc3ccccc3)Oc3ccccc3)cc2)NC(=O)OC2CCOC2)cc1 (stereo partly drawn) [OMe, phenol]",+ (>3 to ≦10)

# Same assay, conditions: fold difference in EC50 vs wild type, class symbols
row,Structure (SMILES),I84V/L90M fold change
1,CCOP(=O)(CN1CC=C(CC(NC(=O)OC2COC3OCCC23)C(O)CN(CC(C)C)S(=O)(=O)c2ccc(OC)cc2)CC1)OCC (stereo not drawn),+ (>3 to ≦10)
2,COc1ccc(S(=O)(=O)N(CC(C)C)CC(O)C(CC2=CCN(CCP(=O)(OCc3ccccc3)OCc3ccccc3)CC2)NC(=O)OC2COC3OCCC23)cc1 (stereo not drawn),+ (>3 to ≦10)
3,CCOP(=O)(CCC1=CCN(CC(NC(=O)OC2COC3OCCC23)C(O)CN(CC(C)C)S(=O)(=O)c2ccc(OC)cc2)CC1)OCC (stereo not drawn),+ (>3 to ≦10)
4,CCOP(=O)(Cc1ccc(NCC(NC(=O)OC2COC3OCCC23)C(O)CN(CC(C)C)S(=O)(=O)c2ccc(OC)cc2)cc1)OCC (stereo not drawn),+ (>3 to ≦10)
5,CCOP(=O)(Cc1ccc(N(C)CC(NC(=O)OC2COC3OCCC23)C(O)CN(CC(C)C)S(=O)(=O)c2ccc(OC)cc2)cc1)OCC (stereo not drawn),+ (>3 to ≦10)
6,CCOP(=O)(OCC)c1ccc(CN(C)CC(NC(=O)OC2COC3OCCC23)C(O)CN(CC(C)C)S(=O)(=O)c2ccc(OC)cc2)cc1 (stereo not drawn),− (≦3)
7,CCOP(=O)(Cc1ccc2c(c1)CCN(CC(NC(=O)OC1COC3OCCC13)C(O)CN(CC(C)C)S(=O)(=O)c1ccc(OC)cc1)C2)OCC (stereo not drawn),+ (>3 to ≦10)
8,CCOP(=O)(CNc1ccc(CC(NC(=O)OC2COC3OCCC23)C(O)CN(CC(C)C)S(=O)(=O)c2ccc(OC)cc2)cc1)OCC (stereo not drawn),− (≦3)
9,COc1ccc(S(=O)(=O)N(CC(C)C)CC(O)C(Cc2ccc(NCP(=O)(OCc3ccccc3)OCc3ccccc3)cc2)NC(=O)OC2COC3OCCC23)cc1 (stereo not drawn),− (≦3)
10,"COC(=O)N[C@H](C(=O)N[C@@H](Cc1ccccc1)[C@@H](O)CN(Cc1ccc(-c2ccccn2)cc1)NC(=O)[C@@H](NC(=O)OC)C(C)(C)C)C(C)(C)C [Atazanavir, reference compound]",+++ (>30)
11,COc1ccc(S(=O)(=O)N(CC(C)C)CC(O)C(Cc2ccc(OCP(=O)(OCc3ccccc3)OCc3ccccc3)cc2)NC(=O)OC2COC3OCCC23)cc1 (stereo not drawn) [drawing 602 R1=OBn R2=OBn],− (≦3)
12,CCOP(=O)(COc1ccc(CC(NC(=O)OC2COC3OCCC23)C(O)CN(CC(C)C)S(=O)(=O)c2ccc(OC)cc2)cc1)OCC (stereo not drawn) [drawing 602 R1=OEt R2=OEt],− (≦3)
13,COc1ccc(S(=O)(=O)N(CC(C)C)CC(O)C(Cc2ccc(OCP(=O)(O)O)cc2)NC(=O)OC2COC3OCCC23)cc1 (stereo not drawn) [drawing 602 R1=OH R2=OH],− (≦3)
14,COc1ccc(S(=O)(=O)N(CC(C)C)CC(O)C(Cc2ccc(OCP(=O)(OC(C)C)OC(C)C)cc2)NC(=O)OC2COC3OCCC23)cc1 (stereo not drawn) [drawing 602 R1=OiPr R2=OiPr],− (≦3)
15,CCOP(=O)(OCC)c1ccc(CC(NC(=O)OC2COC3OCCC23)C(O)CN(CC(C)C)S(=O)(=O)c2ccc(OC)cc2)cc1 (stereo not drawn) [drawing 604 R1=OEt R2=OEt],− (≦3)
16,CCNP(=O)(COc1ccc(CC(NC(=O)OC2COC3OCCC23)C(O)CN(CC(C)C)S(=O)(=O)c2ccc(OC)cc2)cc1)NCC (stereo not drawn) [drawing 606 R1=NHEt R2=NHEt],− (≦3)
17,CCOC(=O)C(NP(=O)(COc1ccc(CC(NC(=O)OC2COC3OCCC23)C(O)CN(CC(C)C)S(=O)(=O)c2ccc(OC)cc2)cc1)NC(C(=O)OCC)C(C)C)C(C)C (stereo not drawn) [drawing 606 R1=Val-Et R2=Val-Et],− (≦3)
18,CCOC(=O)C(C)OP(=O)(COc1ccc(CC(NC(=O)OC2COC3OCCC23)C(O)CN(CC(C)C)S(=O)(=O)c2ccc(OC)cc2)cc1)OC(C)C(=O)OCC (stereo not drawn) [drawing 607 R1=Lac-Et R2=Lac-Et],− (≦3)
19,COc1ccc(S(=O)(=O)N(CC(C)C)CC(O)C(Cc2ccc(OCP(=O)(OC(C)C(=O)OC(C)C)OC(C)C(=O)OC(C)C)cc2)NC(=O)OC2COC3OCCC23)cc1 (stereo not drawn) [drawing 607 R1=Lac-iPr R2=Lac-iPr],− (≦3)
20,CCOC(=O)C(C)NP(=O)(COc1ccc(CC(NC(=O)OC2COC3OCCC23)C(O)CN(CC(C)C)S(=O)(=O)c2ccc(OC)cc2)cc1)OCc1ccccc1 (stereo not drawn) [drawing 608 R1=OBn R2=Ala-Et],− (≦3)
21,COc1ccc(S(=O)(=O)N(CC(C)C)CC(O)C(Cc2ccc(OCP(=O)(NC(C)C(=O)OC(C)C)Oc3ccccc3)cc2)NC(=O)OC2COC3OCCC23)cc1 (stereo not drawn) [drawing 608 R1=OPh R2=(D)Ala-iPr],− (≦3)
22,CCCCOC(=O)C(C)NP(=O)(COc1ccc(CC(NC(=O)OC2COC3OCCC23)C(O)CN(CC(C)C)S(=O)(=O)c2ccc(OC)cc2)cc1)Oc1ccccc1 (stereo not drawn) [drawing 608 R1=OPh R2=Ala-Bu],− (≦3)
23,COC(=O)C(C)NP(=O)(COc1ccc(CC(NC(=O)OC2COC3OCCC23)C(O)CN(CC(C)C)S(=O)(=O)c2ccc(OC)cc2)cc1)Oc1ccccc1 (stereo not drawn) [drawing 608 R1=OPh R2=Ala-Me],− (≦3)
24,COc1ccc(S(=O)(=O)N(CC(C)C)CC(O)C(Cc2ccc(OCP(=O)(NC(C)C(=O)OC(C)C)Oc3ccccc3)cc2)NC(=O)OC2COC3OCCC23)cc1 (stereo not drawn) [drawing 608 R1=OPh R2=Ala-iPr],− (≦3)
25,CCCCOC(=O)CNP(=O)(COc1ccc(CC(NC(=O)OC2COC3OCCC23)C(O)CN(CC(C)C)S(=O)(=O)c2ccc(OC)cc2)cc1)Oc1ccccc1 (stereo not drawn) [drawing 608 R1=OPh R2=Gly-Bu],− (≦3)
